Assay results published in patent US20180064726A1, “Deuterium-Substituted Oxazepin Compounds” (Auspex Pharmaceuticals, Inc., priority 2016, published 2018).

Columns and labels:
[1] = test system: patients with QT-3 (LQT3) syndrome; conditions: cited from earlier work
[2] = In vitro human liver microsomal stability assay; format: in vitro ADME; conditions: human liver microsomes 0.5 mg per mL protein, NADPH-generating system, 1 μM test compound, 37±1° C., 0-60 min; for half-life at 1 μM: degradation half-life; for CLint scaled at 1 μM: read-out: Clearance %
Protocol: In Vitro Liver Microsomal Stability Assay
Human liver microsomal stability assays were conducted at 0.5 mg per mL liver microsome protein with an NADPH-generating system consisting of NADP (1 mM, pH 7.4), […] (5 mM, pH 7.4), and glucose-6-phosphate dehydrogenase (1 unit/mL).
Test compounds were prepared as solutions in DMSO and added to the assay mixture (1 μM, final concentration in incubation) to be incubated at 37±1° C. Reactions were initiated with the addition of cofactor and were stopped at 0, 15, 30, 45, and 60 min after cofactor addition with stop reagent (0.2 mL acetonitrile). Samples were centrifuged (920×g for 10 min at 10° C.) in 96-well plates. Supernatant fractions were analyzed by LC-MS/MS to determine the percent remaining and estimate the degradation half-life of the test compounds.

| Compound | effect on QTc interval [1] | half-life at 1 μM [2] [h] | CLint scaled at 1 μM [2] [mL/min/kg] |
| --- | --- | --- | --- |
| 4-(pyrimidin-2-ylmethyl)-7-[4-(trifluoromethoxy)phenyl]-2,3,4,5-tetrahydro-1,4-benzoxazepin-5-one [Example 1] | shortening of the QTc interval | – | – |
| O=C1c2cc(-c3ccc(OC(F)(F)F)cc3)ccc2OCCN1Cc1ncccn1 [Example 1, 4-(pyrimidin-2-ylmethyl)-7-[4-(trifluoromethoxy)phenyl]-2,3,4,5-tetrahydro-1,4-benzoxazepin-5-one, reference compound] | – | 2.36 | 12.3 |
| [2H]C([2H])(c1ncccn1)N1CCOc2ccc(-c3ccc(OC(F)(F)F)cc3)cc2C1=O [Example 2, 4-(pyrimidin-2-ylmethyl-d2)-7-(4-(trifluoromethoxy)phenyl)-3,4-dihydrobenzo[f][1,4]oxazepin-5(2H)-one] | – | 9.52 | 3.04 |
| [2H]C1([2H])CN(Cc2ncccn2)C(=O)c2cc(-c3ccc(OC(F)(F)F)cc3)ccc2O1 [Example 3, 4-(pyrimidin-2-ylmethyl)-7-[4-(trifluoromethoxy)phenyl]-2,3,4,5-tetrahydro(2,2-d2)-1,4-benzoxazepin-5-one] | – | 4.62 | 6.27 |
| [2H]C1([2H])COc2ccc(-c3ccc(OC(F)(F)F)cc3)cc2C(=O)N1Cc1ncccn1 [Example 4, 4-(pyrimidin-2-ylmethyl)-7-(4-(trifluoromethoxy)phenyl)-3,4-dihydrobenzo[f][1,4]oxazepin-5(2H)-one-3,3-d2] | – | 2.01 | 14.4 |
| [2H]C1([2H])Oc2ccc(-c3ccc(OC(F)(F)F)cc3)cc2C(=O)N(Cc2ncccn2)C1([2H])[2H] [Example 5, 4-(pyrimidin-2-ylmethyl)-7-[4-(trifluoromethoxy)phenyl]-2,3,4,5-tetrahydro(2,2,3,3-d4)-1,4-benzoxazepin-5-one] | – | 1.35 | 21.5 |
| [2H]C([2H])(c1ncccn1)N1C(=O)c2cc(-c3ccc(OC(F)(F)F)cc3)ccc2OC([2H])([2H])C1([2H])[2H] [Example 6, 4-[pyrimidin-2-yl(d2)methyl]-7-[4-(trifluoromethoxy)phenyl]-2,3,4,5-tetrahydro(2,2,3,3-d4)-1,4-benzoxazepin-5-one] | – | 1.51 | 19.2 |
| [2H]c1c(-c2ccc(OC(F)(F)F)cc2)cc2c(c1[2H])OCCN(Cc1ncccn1)C2=O [Example 7, 4-(pyrimidin-2-ylmethyl)-7-[4-(trifluoromethoxy)phenyl]-2,3,4,5-tetrahydro(8,9-d2)-1,4-benzoxazepin-5-one] | – | 2.32 | 12.5 |
